Test results reported in publication PMC3873929, “Cellular Density Effect on RGD Ligand Internalization in Glioblastoma for MRI Application” (PLoS ONE, 2013).
Values joined by “and” are separate entries in the source; they are usually repeats but may differ in a detail not shown here. Equal entries are not always repeated.

Experiments:
Assay type in all cases: cell-based, Human
[1] = system: U87 cells; test: T1-weighted MRI (2D FLASH) of U87 cells after uptake of contrast agent; conditions: U87 cells at 7*10^4 cell/cm^2, 400 µM, 4.7 T, unlabeled cells SNR 60
Procedure: E-[c(RGDfK)2]-DOTA-Gd uptake by U87 cells was performed on cells platted at 7.10^4 cells/cm^2. After 24 h, the cells were then incubated for 4 h with 400 µM of E-[c(RGDfK)2]-DOTA-Gd or for 1 h with MnCl2 at 400 µM as positive contrast for the T1-weighted (T1-w) sequence. Then the medium was discarded and the cells were washed with RPMI. The cells were re-suspended at 2.10_6 cells in 100 µL of phosphate buffer saline (PBS) for each condition and mixed with 100 µL of agarose 2% (Sigma-Aldrich).
MR images of cells trapped in agarose gel were acquired on a 4.7 T Biospec system (Bruker, Ettlingen, Germany). The system was equipped with a 6-cm diameter BG6 gradient system capable of 950 mT/m maximum strength. Imaging was performed with a birdcage resonator (35-mm diameter and 80-mm length) tuned at 200.3 MHz. 2D images were acquired with a T1-w sequence (FLASH sequence, TE/TR: 1,6/14 ms, flip angle: 60°, FOV: 25*25 mm, matrix:128*96, […], total acquisition time: 5 min 44 s).

[2] = system: U87 cells; test: Flow cytometry uptake of fluorescent RGD ligands versus cell density; conditions: 8*10^3 to 10^5 cells/cm^2, 1 h incubation, Alexa Fluor-488 conjugates (E-[c(RGDfK)2] 2 µM; iRGD 15 µM)
Procedure: (§1) Uptakes of E-[c(RGDfK)2]-Alexa488 and iRGD-alexa488 by U87 cells were compared for different cellular densities using flow cytometry. Twenty four multiwell plates (Becton-Dickinson, 2 cm^2/well), were pretreated with collagen (Sigma-Aldrich) (10 µg/cm^2). Then the cells were seeded during 24 h either at densities ranging from 8.10^3 to 10^5 cells/cm2 or at three typical densities being in the lowest, the median and the highest values of the previously mentioned density range. The cells were incubated 1 h with the fluorescent RGD ligands (E-[c(RGDfK)2]-Alexa488, 2 µM; iRGD-alexa488, 15 µM). Then the medium was discarded and the cells were washed with Roswell Park Memorial Institute Medium (RPMI, Gibco Corp). Thereafter the cells were re-suspended in RPMI at 100 cells/µl and analyzed by flow cytometry (Guava easyCyte flow cytometer/counter, Millipore, λexc: 488 nm, λem: 525 nm).

[3] = system: U87 cells; test: Fluorescence microscopy of sub-cellular location of fluorescent RGD ligands
Procedure: Protocols for microscopy were identical to those for flow cytometry. Cells were seeded on glass coverslips after collagen treatment as described above. After the different sets of incubations the cells were washed with RPMI and fixed with paraformaldehyde (4%, 20 min). Nuclei were then labeled with DAPI (0.01 mg/ml). After three washes, the coverslips were mounted on glass slides and observed using a Leica DM5500 B (magnification 63×, λexc: 480 nm, λem: 530 nm and λexc:360 nm λem: 470 nm for alexa fluor-488 and DAPI respectively).

[4] = system: U87 cells; test: Flow cytometry uptake with endocytosis pathway inhibitors (nystatin, amiloride, chloroquine); conditions: 1 h
Procedure: as §1
The clathrin-mediated endocytosis and the caveola-dependent endocytosis were characterized by incubations with chloroquine (100 µM) and nystatin (30 µM), respectively. Contribution of macropinocytosis was studied following amiloride treatment (1 mM).
(§2) All of these inhibitors and drugs were applied on the cells for 1 h simultaneously with the fluorescent RGD ligands. When specified, incubation of drugs begun 20 min before the incubation with the RGD ligands. All the reagents were from Sigma-Aldrich.

[5] = system: U87 cells; test: Flow cytometry uptake with cytoskeleton drugs (paclitaxel, cytoD, colchicine, nocodazole); conditions: 1 h
Procedure: as §1
The microtubule targeting was performed using paclitaxel (10 µM), colchicin (7.5 µM) and nocodazole (30 µM).
as §2

[6] = system: U87 cells; test: Flow cytometry uptake under different energy substrates and oxidative metabolism inhibitors
Procedure: Human GBM cell line U87-MG from the American Type Culture Collection (ATCC, LGC standards, Middlesex, UK) was cultured in Dulbecco's modified eagles medium (DMEM, Gibco Corp) supplemented with 10% fetal calf serum (FCS, Gibco Corp), in a humidified atmosphere with 5% CO2 at 37°C. The characterization of the metabolism contribution was performed with DMEM without glucose and pyruvate (DMEM, Gibco Corp). Glucose or pyruvate were added when necessary at the concentration of 1 g/L and 0.11 g/L , respectively.
as §1
The oxidative metabolism was studied with oligomycine (20 µM) and rotenone (10 µM).
as §2

[7] = system: U87 cells; test: T1-weighted MRI (3D FLASH) of U87 cells seeded at three densities and labeled with RGD-Gd; conditions: 400 µM
Procedure: Seeded at three densities, cells were incubated with E-[c(RGDfK)2]-DOTA-Gd at 400 µM for 4 h. The same protocol to prepare cells trapped in agarose gel was used. 3D images of the RGD internalization were acquired with a T1-w sequence (FLASH sequence, TE/TR: 1,5/12 ms, flip angle: 20°, FOV: 30*25*20 mm, matrix:128*128*64, 6 averages, total acquisition time: 9 min 49 s).

Compound: [Cl][Mn][Cl] [MnCl2, reference compound]
- SNR of labeled U87 cells (T1-w MRI) ([1]; positive contrast control, 1 h incubation): 100

Compound: CRGDK/RGPD/EC [iRGD-alexa488]
- Increase of cell labeling (MFI) at the highest densities compared to the lowest [2]: 30%
- Sub-cellular location of the fluorescent signal ([3]; 1 h at 37°C, all studied cell densities, no inhibitor (iRGD-alexa488 15 µM)): most of the signal appeared intracellular
- Membrane labeling ([3]; 1 h at 37°C, no inhibitor (iRGD-alexa488 15 µM)): undetectable
- Fluorescence location in the presence or not of nystatin ([3]; nystatin (30 µM), data not shown): inside cytoplasmic vesicles
- Sub-cellular location of fluorescence during inhibition of clathrin-mediated endocytosis ([3]; with chloroquine (100 µM)): typical cytoplasmic membrane labeling
- Effect of macropinocytosis inhibition (amiloride) on internalization ([4]; amiloride 1 mM): had no effect
- Decrease of uptake after chloroquine treatment, high density ([4]; chloroquine 100 µM, high density (95000 cell/cm^2 for E-[c(RGDfK)2], 75000 for iRGD), mean ± SEM, n≥3): 53.9%±2.5%
- Decrease of uptake after chloroquine treatment, low density ([4]; chloroquine 100 µM, low density (15000 cell/cm^2 for E-[c(RGDfK)2], 7000 for iRGD), mean ± SEM, n≥3): 42.4%±1.1% and 42%
- Decrease of uptake after chloroquine treatment, medium density ([4]; chloroquine 100 µM, medium density (50000 cell/cm^2 for E-[c(RGDfK)2], 35000 for iRGD), mean ± SEM, n≥3): 48.2±0.2%
- Effect of caveolin-dependent endocytosis inhibition (nystatin) on internalization ([4]; nystatin 30 µM, all studied cell densities): did not alter
- Uptake results after colchicine treatment (strong decrease), high density ([5]; colchicine 7.5 µM, high density (80000 cell/cm^2 for E-[c(RGDfK)2], 70000 for iRGD), mean ± SEM, n≥3): 54.8%±0.8%
- Uptake results after colchicine treatment (strong decrease), low density ([5]; colchicine 7.5 µM, low density (10000 cell/cm^2), mean ± SEM, n≥3): 55.0%±0.3%
- Uptake results after colchicine treatment (strong decrease), medium density ([5]; colchicine 7.5 µM, medium density (40000 cell/cm^2 for E-[c(RGDfK)2], 35000 for iRGD), mean ± SEM, n≥3): 53.1%±0.1%
- cytoD effect on internalization (decrease), high density ([5]; cytoD 20 µM, high density (80000 cell/cm^2 for E-[c(RGDfK)2], 70000 for iRGD), mean ± SEM, n≥3): 29.0%±2.1%
- cytoD effect on internalization (decrease), low density ([5]; cytoD 20 µM, low density (10000 cell/cm^2), mean ± SEM, n≥3): 29.7%±1.3%
- cytoD effect on internalization (decrease), medium density ([5]; cytoD 20 µM, medium density (35000 cell/cm^2 for iRGD), mean ± SEM, n≥3): 23.5%±1.3%
- Effect of paclitaxel (stabilization of polymerized microtubules) on internalization ([5]; paclitaxel 10 µM): did not alter
- Internalization without glucose and with or without pyruvate (conditions 2 and 3) ([6]; DMEM without glucose, no oligomycin, remained cell density dependent): not altered
- Internalization with oligomycin in presence of glucose and pyruvate (condition 4) ([6]; oligomycin 20 µM, glucose 1 g/L, pyruvate 0.11 g/L): decreased more for the lowest cell densities than for the highest ones
- Internalization without glucose in the presence of pyruvate and oligomycin (condition 5) ([6]; oligomycin 20 µM, regardless of the cell density): strong inhibition
- Internalization with rotenone compared with oligomycin ([6]; rotenone 10 µM, data not shown): comparable

Compound: E-[c(RGDfK)2]-DOTA-Gd (bicyclic or more) [RGD-gadolinium chelate made by mixing E-[c(RGDfK)2]-DOTA with GdCl2; MRI contrast agent]
- SNR of labeled U87 cells (T1-w MRI) ([1]; 4 h incubation): 70
- SNR values for low, medium and high density compared with each other [7]: not significantly different
- SNR of the different cell densities compared with SNR of control ([7]; p<0.05): significantly higher
- SNR (T1-w MRI), highest cell density ([7]; highest density, 4 h, 3D FLASH 4.7 T): 16.5
